Assay results from patent US20080293674A1, “Azinyl Imidazoazine and Azinyl Carboxamide” (priority 2004, published 2008).
Read-outs that look alike come from different tables or passages of the source.

Tests used:
Aphis gossypii = Aphis gossypii test (cotton leaf immersion); format: in vivo; details: 144 h, after 6 days at a concentration of 100 ppm, cotton leaves (Gossypium hirsutum), read-out: death rate
Protocol: After the desired time the death rate was determined in %, where 100% means that all aphids were killed; 0% means that no aphids were killed

Myzus persicae = assay: Myzus test (spray treatment); format: in vivo; details: 120 h, after 5 days at a concentration of 500 g/ha, read-out: death rate
Protocol: After the desired time the death rate was determined in %, where 100% means that all aphids were killed; 0% means that no aphids were killed.

[1] = China cabbage leaves (Brassica pekinensis)

SMILES	pest or weed control at 100 ppm (Aphis gossypii) [%]	pest or weed control at 500 g/ha (Myzus persicae; [1]) [%]	pest or weed control at 500 g/ha (Myzus persicae; compounds of structure (II-b)) [%]
FC(F)(F)c1ccncc1-c1ncc2ccccn12 [Example 1, 3-(4-trifluoromethylpyridin-3-yl)-imidazo[1,5-a]pyridine]	≥ 80	≥ 80	–
FC(F)(F)c1ccncc1-c1nc(Br)c2ccccn12 [Example 3, 1-bromo-3-(4-trifluoromethylpyridin-3-yl)-imidazo[1,5-a]pyridine]	–	≥ 80	–
FC(F)(F)c1ccncc1-c1nc(Cl)c2ccccn12 [Example 4, 1-chloro-3-(4-trifluoromethylpyridin-3-yl)-imidazo[1,5-a]pyridine]	≥ 80	≥ 80	–
O=Cc1nc(-c2cnccc2C(F)(F)F)n2ccccc12 [Example 5, 3-(4-trifluoromethylpyridin-3-yl)-imidazo[1,5-a]pyridine-1-carboxaldehyde]	≥ 80	≥ 80	–
CO/N=C/c1nc(-c2cnccc2C(F)(F)F)n2ccccc12 [Example 6, 1-methoximinomethyl-3-(4-trifluoromethylpyridin-3-yl)-imidazo[1,5-a]-pyridine]	≥ 80	≥ 80	–
FC(F)(F)c1ccncc1-c1nc(-c2cccc(Cl)c2)c2ccccn12 [Example 7, 1-(3-chlorophenyl)-3-(4-trifluoromethylpyridin-3-yl)-imidazo[1,5-a]-pyridine]	–	≥ 80	–
FC(F)(F)c1ccncc1-c1nc(C#Cc2ccccc2)c2ccccn12 [Example 8, 1-(phenylethynyl)-3-(4-trifluoromethylpyridin-3-yl)-imidazo[1,5-a]-pyridine]	≥ 80	≥ 80	–
FC(F)(F)c1cc(Cl)c2c(Cl)nc(-c3cnccc3C(F)(F)F)n2c1 [Example 38]	≥ 80	≥ 80	–
FC(F)(F)c1ccncc1-c1nc(CN(Cc2ccccc2)Cc2ccccc2)c2ccccn12 [Example 124, 1-(dibenzylaminomethyl)-3-(4-trifluoromethylpyridin-3-yl)-imidazo[1,5-a]pyridine]	≥ 80	≥ 80	–
O=C(O)c1nc(-c2cnccc2C(F)(F)F)n2ccccc12 [Example 126, 3-(4-trifluoromethylpyridin-3-yl)-imidazo[1,5-a]pyridine-1-carboxylic acid]	≥ 80	≥ 80	–
FC(F)(F)c1ccncc1-c1nc(/C=C/c2ccccc2)c2ccccn12 [Example 127, 1-(phenylvinylidene)-3-(4-Trifluoromethylpyridin-3-yl)-imidazo[1,5-a]-pyridine]	≥ 80	≥ 80	–
CSc1nc(-c2cnccc2C(F)(F)F)n2ccccc12 [Example 128]	–	≥ 80	–
Cc1cc(C)nc(CNC(=O)c2cnccc2C(F)(F)F)n1 [II-11, N-(4,6-Dimethylpyrimidin-2-ylmethyl)-4-trifluoromethyl-nicotinamide]	–	–	≥ 90
O=C(NCc1ncccn1)c1cnccc1C(F)(F)F [II-27, N-Pyrimidin-2-ylmethyl-4-trifluoromethyl-nicotinamide]	–	–	≥ 90
Cc1cnc(CNC(=O)c2cnccc2C(F)(F)F)cn1 [II-29]	–	–	≥ 90
Cc1cc(CNC(=O)c2cnccc2C(F)(F)F)nc(C)n1 [II-38, N-(2,6-Dimethylpyrimidin-4-ylmethyl)-4-trifluoromethyl nicotinamide]	–	≥ 80	≥ 90
